# Legend:
# [1] = system: E. coli; test: Growth inhibition of E. coli upon induction of endogenous Plectasin expression (suicide expression system); type: cell-based
# Procedure: In order to evaluate whether E. coli was growth inhibited in liquid media upon induction of endogenous Plectasin expression, the following experiment was conducted as disclosed in the examples of international patent application WO 00/73433. Briefly, fresh overnight cultures of cells containing either pDRS-18-plectasin, pDR-18-plectasin, pHH or pHHA plasmid were diluted 300-fold into 150 micro liter of LB or LB containing 0.1% arabinose in a microtiter plate and incubated at 37 degrees Celsius with vigorous shaking. The growth curve was monitored by measuring OD450 at regular intervals using an ELISA reader.
# [2] = system: Bacillus subtilis; test: Antimicrobial activity by radial diffusion assay; type: cell-based
# Procedure: A modified version of a previously published protocol has been applied in the detection of antimicrobial activity (Lehrer et al., (1991) Ultrasensitive assays for endogenous antimicrobial polypeptides J Immunol Methods 137: 167-173). Target bacteria (10^6 colony forming units (CFU)) were added to 10 ml of underlay agarose (1% low electro-endosmosis agarose, 0.03% Trypticase soy broth, 10 mM sodium phosphat, pH 7.4, 37 degrees Celsius). Suspension was solidified on an INTEGRID Petri Dish (Becton Dickinson Labware, N.J.). A 3 mm Gel Puncher was used to make holes in the underlay agarose (Amersham Pharmacia Biotech, Sweden). Samples were added to the holes and incubated at 37 degrees Celsius, 3 hours. An overlay was poured on top and the plate was incubated overnight (LB media, 7.5% Agar). Antimicrobial activity was seen as bacterial clearing zones around the wells. Living cells was counterstained by adding 10 ml, 0.2 mM MTT (3-(4,5-Dimethylthiazol-2-yl)-2,5-diphenyltetrazolium bromide Thiazolyl blue). All standard protocols has been described elsewhere (Sambrook, Fritsch, and Maniatis, 1989).
# To evaluate the anti-microbial activity of Plectasin, fermentation broths of recombinant Aspergillus oryzae were applied in 2-fold serial dilutions in a radial diffusion assay (described above). […]
# The supernatants described above were analyzed in a radial diffusion assay as described in Example 5. […]
substance,measurement,setting,value
Plectasin,inhibition of cell growth,[1]; Plectasin directed to the periplasm,41%
same,effect on cell growth,[1]; Plectasin expressed in the cytoplasm,did not affect cell growth
same,increase in antimicrobial activity of the peptide,[2]; produced in E. coli Origami-DE3 (inclusion bodies) versus the earlier E. coli host,5-10 fold
same,largest clearing zone,[2]; undiluted fermentation broth of recombinant Aspergillus oryzae,15 mm
